Reference: patent publication US20250161287A1, “METHODS, COMPOSITIONS, AND COMBINATIONS FOR PREVENTING OR TREATING CANCER RECURRENCE” (VUJA DE SCIENCES, INC., priority 2022, published 2025)
“Also recorded” adds a separate entry of the source. Like-named read-outs stand apart in the source and are kept apart here.

Legend:
K7M2 OS cell line [1] = test: 2D growth / cytotoxicity by MTT, K7M2; type: cell-based, mouse; settings: for non-cytotoxic drug exposures in 2D: K7M2, MTT 72 h, 10 pM-100 μM
Procedure: The number of viable cells present in 2D culture was determined by MTT as previously reported. Briefly, cells were plated in 96-well plates at 2,000 cells/well and incubated at 37° C. for 24 h. […] After 72 h, MTT reagent (20 L/well of a 5 mg/mL stock solution in sterile water; Sigma, St. Louis, MO) was added to each well and the plate was incubated at 37° C. for 2 h. DMSO ([…]) was then added to each well to solubilize the formazan crystals.
(§1) The resulting absorbance was measured at 490 nm via plate reader (Molecular Devices, San Jose, CA). DMSO (0.1%) was used as vehicle control, while 20 μM rapamycin was used as a positive cell-kill control. The experimental conditions were conducted in triplicate and each experiment was repeated three times. Regression lines and IC50's were calculated using a four-parameter variable slope nonlinear fit in GraphPad Prism.

MG63.3 OS cell line [2] = test: in vitro 3D BME assay with MG63.3 OS cell line; type: cell-based, human; settings: for minimal effective concentration: read-out: lowest dose leading to appreciable inhibition of 3D growth; for activity on 3D BME compared with 2D: MG63.3, 3D BME vs 2D MTT 72 h
From the text: (§2) 3D basement membrane extract (BME) assay was developed at the NCI Barkan (D. Barkan et al. 2008; Dalit Barkan and Green 2011; Hen and Barkan 2020). BME is purified from Engelbreth-Holm-Swarm (EHS) tumor, primarily made up of laminin, collagen IV, entactin, and heparin sulfate proteoglycans (Cultrex Reduced Growth Factor Basement Membrane Extract, PathClear n.d.), which allows it to more accurately reflect the 3D extracellular environment in the body.
(§3) Initially >150 selected therapeutic agents were tested on BME based on the likelihood for either a positive effect or a […] negative effect (as negative controls). […] These therapeutic agents were also tested in dose response (as broad as 1 pM-100 μM) for 2D cytotoxicity (MTT) and the IC50 was calculated. Where required, the hits from the initial screen were also further characterized at additional doses <100 nM in order to further determine the relative selectivity compared to the 2D IC50.
(§4) The influence of drug exposure on the metastatic phenotype was assessed in an in vitro assay of ME and escape from dormancy using a 3D BME assay as previously reported, which was adapted for use with OS cells.
(§5) Cultrex® PathClear, Reduced Growth Factor Basement Membrane Extract (BME—Bio-Techne, Minneapolis, MN) was added ([…]) to a 96-well plate and allowed to gel by incubating at 37° C. for ≥30 min. Cells were harvested, washed with DMEM (no glucose, no FBS, Gibco, Grand Island, NY) and centrifuged at 1500 g×5 mins. The media was aspirated and the remaining cell pellet flicked for about 10 s to ensure disaggregation.
(§6) Cells were diluted in assay media containing 2% BME, resuspended vigorously and 150 μL of the cell suspension was added on top of the gelled 3D BME layer. […] Cell numbers were determined in control vehicle (cells in media+0.1% DMSO), or treated wells and were measured on the indicated days by addition of 20 μL/well of MTS reagent (Cell Titer 96 Aqueous One, Promega, Madison, WI), followed by incubation at 37° C. for 2 h and absorbance measurements at 490 nm via plate reader (Molecular Devices, San Jose CA).
(§7) All conditions were conducted in quadruplicate and each experiment was carried out at least 3 separate times. All comparisons were made between treatment and vehicle control at concordant time points. Statistical analyses and non-linear regressions were derived using GraphPad Prism statistical software.

MG63.3 OS cells = test: in vitro SISGel assay with highly metastatic MG63.3 OS cells; type: cell-based, human; settings: for lowest dose leading to appreciable inhibition of 3D growth: MG63.3 on SISGel, vs vehicle control, replicates=4; for activity on 3D SISGel compared with 2D: MG63.3, SISGel vs 2D MTT 72 h
From the text: SISGel is comprised of porcine small intestine submucosa gel that was originally developed at Oklahoma State U., by R. Hurst (CSO) and M. Ihnat (Consultant) (Bailey-Downs et al. 2014; Hurst et al. 2013, 2015, 2016). Unlike BME which is derived from a tumor-based matrix, SISGel is derived from healthy stroma and provides a suppressive “normal” ECM. […] Conditions have been identified that promoted suppressed ME-type profile (FIG. 2A). […] In addition to SISGel's complementarity to the BME assay, it can also be conducted in a 96-well format, enabling a high-throughput system to model suppressed/dormant cancer cells to further validate the screening results in BME.

[3] = given alone at 2 mg/day, cited from earlier work
MG63.3 OS cell line [4] = test: 2D growth / cytotoxicity by MTT, MG63.3; settings: for doses exhibiting cytotoxicity on 2D growth: human, 72 h
Procedure: The number of viable cells present in 2D culture was determined by MTT as previously reported. Briefly, cells were plated in 96-well plates at 2,000 cells/well and incubated at 37° C. for 24 h. After 24 h, the media was replaced with fresh media containing drugs at the desired concentrations (10 pM-10 μM) and incubated at 37° C. for 72 h. After 72 h, MTT reagent (20 L/well of a 5 mg/mL stock solution in sterile water; Sigma, St. Louis, MO) was added to each well and the plate was incubated at 37° C. for 2 h. DMSO ([…]) was then added to each well to solubilize the formazan crystals.
as §1

MG63.3 human OS cells = test: PuMA (ex vivo Pulmonary Metastasis Assay) with MG63.3; type: cell-based; settings: single agents, two doses: 100 nM and 1 μM (rapamycin 100 nM and 1 pM [sic]; AZD8055 10 and 100 nM), replicates=3-5
Procedure: FIG. 23A is a schematic illustrating the metastatic progression of GFP-expressing OS cells conducted by injecting single cells via tail vein injection, followed by lung excision and insufflation 15 mins post-injection. The formation of multicellular colonies in the mouse lung microenvironment can be assessed 14-21 days post-injection.
Dissected lungs are then sectioned and grown on sponges.

K7M2 OS cell line [5] = test: in vitro 3D BME assay with K7M2 OS cell line; type: cell-based, mouse
From the text: as §2, §3, §4, §5, §6, §7

[6] = MG63.3 on 3D BME, vs vehicle control, replicates=4
[7] = Homo sapiens, MG-63.3, MG63.3 on 3D BME, vs vehicle control, replicates=4

## CN1CCN(CCOc2cc(OC3CCOCC3)c3c(Nc4c(Cl)ccc5c4OCO5)ncnc3c2)CC1 [saracatinib]
K7M2 OS cell line [1]
  non-cytotoxic drug exposures in 2D: below 1 μM

## CO[C@H]1C[C@@H]2CC[C@@H](C)[C@@](O)(O2)C(=O)C(=O)N2CCCC[C@H]2C(=O)O[C@H]([C@H](C)C[C@@H]2CC[C@@H](O)[C@H](OC)C2)CC(=O)[C@H](C)/C=C(\C)[C@@H](O)[C@@H](OC)C(=O)[C@H](C)C[C@H](C)/C=C/C=C/C=C/1C [rapamycin]
MG63.3 OS cell line [2]; [6]
  minimal effective concentration: 0.0005 µM
MG63.3 OS cells
  lowest dose leading to appreciable inhibition of 3D growth: 1000 pM
K7M2 OS cell line [1]; K7M2, MTT, 72 h, tested 15 nM-100 μM
  doses leading to significant cytotoxicity on 2D growth: ≥ 10 PM
[3]; months 4 through 12
  whole blood trough concentration mean: 19 ng/mL
  whole blood trough concentration range: 14 to 22 ng/mL
[3]; year 3
  whole blood trough concentration mean: 16 ng/mL
  whole blood trough concentration range: 11 to 22 ng/mL

## COc1ccc(-c2ccc3c(N4CCOC[C@@H]4C)nc(N4CCOC[C@@H]4C)nc3n2)cc1CO [AZD8055]
MG63.3 OS cell line [2]; [7]
  minimal effective concentration: 0.1 µM
MG63.3 OS cell line [2]
  activity on 3D BME compared with 2D: much stronger activity on 3D BME at slightly lower doses
MG63.3 OS cell line [4]
  doses exhibiting cytotoxicity on 2D growth: > 100 nM
MG63.3 human OS cells
  inhibition of ME (loss of GFP signal in the lung tissue): strong inhibition of ME

## CO[C@H]1C[C@@H]2CC[C@@H](C)[C@@](O)(O2)C(=O)C(=O)N2CCCC[C@H]2C(=O)O[C@H]([C@H](C)C[C@@H]2CC[C@@H](OP(C)(C)=O)[C@H](OC)C2)CC(=O)[C@H](C)/C=C(\C)[C@@H](O)[C@@H](OC)C(=O)[C@H](C)C[C@H](C)/C=C/C=C/C=C/1C [ridaforolimus]
MG63.3 OS cell line [2]; [7]
  minimal effective concentration: 0.001 µM
MG63.3 OS cell line [2]
  activity on 3D BME compared with 2D: much stronger activity on 3D BME at significantly lower doses
MG63.3 OS cell line [4]
  doses exhibiting cytotoxicity on 2D growth: > 33000 nM
MG63.3 OS cells
  activity on 3D SISGel compared with 2D: much stronger activity on 3D SISGel at significantly lower doses
  lowest dose leading to appreciable inhibition of 3D growth: 100 pM
MG63.3 human OS cells
  inhibition of ME (loss of GFP signal in the lung tissue): strong inhibition of ME

## CNC(=O)c1cc(Oc2ccc(NC(=O)Nc3ccc(Cl)c(C(F)(F)F)c3)c(F)c2)ccn1 [regorafenib]
MG63.3 OS cell line [2]; Homo sapiens, MG-63.3, 144 h, MG63.3, Day 6 growth by MTS, P<0.005
  inhibition at 1 µM: ~20%
MG63.3 OS cell line [2]; MG63.3, Day 6 MTS, at or below 1 μM
  effect on metastatic phenotype / 3D growth in 3D BME (words): consistently inhibit 3D growth across both cell lines
MG63.3 OS cell line [2]; MG63.3, Day 6 growth by MTS
  inhibition in 3D BME at 100 nM: Significant inhibition was not seen
MG63.3 OS cell line [4]; MG63.3, MTT, exposures up to 1 μM / assessed exposures
  effect on cell number in 2D monolayer: no effect on remaining cell number
K7M2 OS cell line [5]; K7M2, Day 6 MTS, at or below 1 μM
  effect on metastatic phenotype / 3D growth in 3D BME (words): consistently inhibit 3D growth across both cell lines
K7M2 OS cell line [5]; K7M2, Day 6 growth by MTS
  inhibition in 3D BME at 100 nM: Significant inhibition was not seen
K7M2 OS cell line [5]; Mus musculus, 144 h, K7M2, Day 6 growth by MTS, P<0.005
  inhibition at 1 µM: ~20%
K7M2 OS cell line [1]
  non-cytotoxic drug exposures in 2D: below 1 μM

## CO[C@H]1C[C@@H]2CC[C@@H](C)[C@@](O)(O2)C(=O)C(=O)N2CCCC[C@H]2C(=O)O[C@H]([C@H](C)C[C@@H]2CC[C@@H](OC(=O)C(C)(CO)CO)[C@H](OC)C2)CC(=O)[C@H](C)/C=C(\C)[C@@H](O)[C@@H](OC)C(=O)[C@H](C)C[C@H](C)/C=C/C=C/C=C/1C [temsirolimus]
MG63.3 OS cell line [2]; [7]
  minimal effective concentration: 0.001 µM
MG63.3 OS cell line [2]
  activity on 3D BME compared with 2D: much stronger activity on 3D BME at significantly lower doses
MG63.3 OS cells
  activity on 3D SISGel compared with 2D: much stronger activity on 3D SISGel at significantly lower doses
  lowest dose leading to appreciable inhibition of 3D growth: 1 pM
MG63.3 human OS cells
  inhibition of ME (loss of GFP signal in the lung tissue): strong inhibition of ME

## CC(C)n1nc(-c2ccc3oc(N)nc3c2)c2c(N)ncnc21 [sapanisertib]
MG63.3 OS cell line [2]; [7]
  minimal effective concentration: 0.001 µM
MG63.3 OS cell line [4]
  doses exhibiting cytotoxicity on 2D growth: > 8 nM

## Cn1cc(CNCC2CCN(c3ncc(C(=O)NO)cn3)CC2)c2ccccc21 [quisinostat]
MG63.3 OS cell line [2]; [7]
  minimal effective concentration: 0.01 µM
MG63.3 OS cell line [2]
  activity on 3D BME compared with 2D: more active in 3D than in 2D
MG63.3 OS cell line [2]; MG63.3, selectivity = ratio of 3D to 2D % inhibition at the same dose, Class I, Class II, pan-HDAC
  3D activity and selectivity for ME in a screen of 10 HDAC inhibitors: highest 3D activity and selectivity for ME
MG63.3 OS cell line [2]; givinostat 400 nM, quisinostat 10 nM, MG63.3 3D BME
  3D growth inhibition and selectivity for ME at selected dose: significant 3D growth inhibition and selectivity for ME
MG63.3 OS cell line [4]
  doses exhibiting cytotoxicity on 2D growth: ≥ 80 nM

## O=C(CC1NCCCC1O)Cn1cnc2cc(Br)c(Cl)cc2c1=O (stereo not shown) [halofuginone]
MG63.3 OS cell line [2]; [6]
  lowest dose leading to >25% inhibition of 3D growth: 3 nM
MG63.3 OS cell line [4]
  doses exhibiting cytotoxicity on 2D growth: ≥ 12.5 nM

## O=C(Cc1cccc(OC(F)(F)F)c1)Nc1ccc(CCCCc2nnc(NC(=O)Cc3ccccn3)s2)nn1 [telaglenastat]
MG63.3 OS cell line [2]; [7]
  minimal effective concentration: 0.001 µM
MG63.3 OS cell line [2]
  activity on 3D BME compared with 2D: much stronger activity on 3D BME at significantly lower doses; also recorded: more active in 3D than in 2D
MG63.3 OS cell line [2]; [6]
  minimal effective concentration: 0.001 µM
MG63.3 OS cell line [2]; telaglenastat 100 nM, MG63.3
  growth in cell number in 3D BME at highest 2D inactive dose: 10%
MG63.3 OS cell line [4]
  doses exhibiting cytotoxicity on 2D growth: > 100 nM
MG63.3 OS cell line [4]; telaglenastat 100 nM, MG63.3
  effect in 2D at the same dose: no statistically significant inhibition; also recorded: inactive

## CO[C@@H](C(=O)N1Cc2n[nH]c(NC(=O)c3ccc(N4CCN(C)CC4)cc3)c2C1)c1ccccc1 [danusertib]
MG63.3 OS cell line [2]; [7]
  minimal effective concentration: 0.1 µM
MG63.3 OS cell line [2]
  activity on 3D BME compared with 2D: much stronger activity on 3D BME at significantly lower doses
MG63.3 OS cell line [4]
  doses exhibiting cytotoxicity on 2D growth: > 100 nM

## Cn1ncnc1[C@H]1c2n[nH]c(=O)c3cc(F)cc(c23)N[C@@H]1c1ccc(F)cc1 [talazoparib]
MG63.3 OS cell line [2]; [7]
  minimal effective concentration: 0.0125 µM
MG63.3 OS cell line [2]
  activity on 3D BME compared with 2D: much stronger activity on 3D BME at significantly lower doses
MG63.3 OS cell line [4]
  doses exhibiting cytotoxicity on 2D growth: > 100 nM
